Reference: patent EP3878441B1, “ALOE EMODIN AND ESTER DERIVATIVES THEREOF FOR TREATING SSTR2 AND/OR SSTR5 OVEREXPRESSING CANCERS” (Pecere, Teresa, priority 2020, dated 2021)

Tests used:
[1] = state of the art statement; cited from earlier work
[2] = tested on: sstr2 gene; experiment: Real-time PCR, sstr2 mRNA gene expression in MRC5 cells; type: cell-based, human; settings: AE 50µM, SST14 10µM, 5,30,60,120 min (fig.1B)
Experimental: (§1) Real-time PCR analyses were carried out to quantify expression of the selected sstrs genes in IMR5, DMS114, and MRC5 cells. Total RNA was isolated using the Qiagen RNeasy Mini Kit in accordance with the manufacturer's instructions. cDNA synthesis were performed using GeneAmp® RNA PCR Core Kit (Roche, New Jersey, U.S.A.). The expression levels of sstrs mRNA were evaluated by qualitative RT-PCR using the specific primers.
(§2) Relative quantitative PCR (qPCR) was carried out in 25 µl final volume utilizing 3 µl of cDNA, 0.2 µM of each specific primers, using SYBRgreen reagents according to the manufacturer's instructions. PCR reactions comprised 40 cycles after an initial denaturation step (95°C, 10 min) according to the parameters: denaturation at 95°C, 15 sec and annealing/extension at 60°C, 1 min, in an ABI PRISM 7700 Sequence Detection system. To normalize the RNA amount of the extracted samples, real-time PCR analysis of the human GAPDH cDNA was carried out. Moreover, we optimized the method for relative quantification with sequence-specific DNA probes for sstr2 and sstr5 genes TaqMan reagents using kit TaqMan Gene Expression Assays according to the manufacturer's instructions (Applied Biosystem, Milan, Italy). The relative quantification of a target template in the samples was evaluated using the 2^-ΔΔCT method. All experiments were conducted in triplicate.

[3] = tested on: Sstr5 gene; experiment: Real-time PCR, sstr5 mRNA gene expression in IMR5 cells; type: cell-based, human; settings: AE 50µM, SST14 10µM, 5,30,60,120 min (fig.1B)
Experimental: as §1, §2

[4] = tested on: sstr2 gene; experiment: Real-time PCR, sstr2 mRNA gene expression in IMR5 cells; type: cell-based, human; settings: SST14 10µM, 5,30,60,120 min (fig.1B)
Experimental: as §1, §2

SST14: somatostatin peptide containing 14 amino acids; natural ligand of somatostatin receptors
plasma half-life [1]: < 3 min
sstr2 gene expression [2]: significantly upregulated
Sstr5 gene expression [3]: up-regulated
sstr2 gene expression [4]: up-regulated
